Entries after “also recorded” stand apart in the source; their conditions may differ.
Tests used:
[1] = tested on: MDAs; assay: RT-qPCR of CD24 expression in MDAs, 7 days; type: cell-based; settings: after 7 days, population level
Description: (§1) To further assess differentiation status, RT-PCR and flow cytometry (FC) was used to quantify expression of the CSC stemness biomarker signature CD44^+/CD24^− in MDAs. At the population level, MDAs increased CD24 mRNA expression ˜14-fold with ISX9 treatment after 7 days (FIG. 3E). FIG. 3E depicts RT-qPCR of CD24 expression in MD As treated with vehicle or ISX9. […] (FIG. 3F, FIG. 3G). FIG. 3F and FIG. 3G depicts flow cytometry analysis of MDAs treated with vehicle or ISX9.

[2] = tested on: MDA-MB-231 cells; assay: western blot of acetylation of histones H3 and H4; type: cell-based; settings: 2D- and 3D-treated cells, 24 hours
Description: Also identified was the fact that a similar increase in acetylation was found in patient-derived organoid models. […] Acetylation and deactylation of histones H3 and H4 are typically orchestrated by Histone Acetyltransferases (HATs), including the several HAT subfamilies, as well as HDACs (see, e.g., Marmorstein, R. et al. Cold Spring Harb. Perspect. Biol. 6, a018762 (2014)). Not wishing to be bound by any particular theory, Isx9 may bind directly to HATs and/or HDACs in order to activate histone acetylation and drive induction of MET and/or CSC differentiation.

[3] = tested on: PIM-025 PDOs; assay: western blot of E-Cadherin and Vimentin in PDOs; type: cell-based; settings: 6 days
Description: (§2) FIG. 8N depicts a western blot analysis of E-Cadherin and Vimentin in PIM-025 PDOs treated with vehicle or ISX9 for 6 days. FIG. 8O depicts a western blot analysis of E-Cadherin and Vimentin in PA-14-13 PDOs treated with vehicle or ISX9 for 6 days.

[4] = tested on: PA-14-13 PDOs; assay: western blot of E-Cadherin and Vimentin in PDOs; type: cell-based; settings: 6 days
Description: as §2

[5] = tested on: MDA-MB-231; assay: B-Catenin localization to cell-cell junctions; type: cell-based; settings: 48 hours, 2D-treated cells
[6] = tested on: MDAs; assay: flow cytometry of CDH1+ MDA cells in 2D and 3D Collagen I densities; type: cell-based
Experimental: To determine whether induction of MET was specific to the HD Collagen I condition or generally applicable to all ISX9-treated cells in a 3D Collagen condition, CDH1^+ cells in 2D, and multiple 3D Collagen I densities were flow-sorted (1 mg/mL, 2.5 mg/mL, and 6 mg/mL Col1) (FIG. 4F, FIG. 4G).) FIG. 4F depicts fluorescence profiles of CDH1 in MDAs treated with vehicle or ISX9 for 7 days in 2D TC, LD Col1, MD Col1, or HD Col1 conditions. FIG. 4G depicts a flow cytometry analysis of CDH1^+ MDA cells treated with vehicle or ISX9 in 2D TC, LD Col1, MD Col1, or HD Col1.

[7] = tested on: MDAs; assay: chemo-susceptibility to doxorubicin after pre-treatment, MTS assay; type: cell-based; settings: 7d pre-treatment in HD Col1, then chemotherapy 3d; normalized to vehicle control
Experimental: To determine whether ISX9 could be used in a similar therapeutic function, MDAs and R40P cells were treated with vehicle or ISX9 for 7d in HD Col1, followed by chemotherapy for 3d and MTS assay to quantify viable cells.

[8] = cited from earlier work
[9] = tested on: Notch-activated epicardium-derived cells (NECs); settings: after myocardial infarction; cited from earlier work
[10] = tested on: MDAs; assay: flow cytometry of CD44+/CD24- CSC population in MDAs; type: cell-based
Description: as §1
Cells in 2D tissue culture and HD Collagen I were treated with ISX9 daily for 7 days, dissociated and flow-sorted. […] These figures depict fluorescence profiles of CD44/CD24 in MDAs treated with vehicle or ISX9 for 7 days in (FIG. 4A) 2D TC or (FIG. 4B) HD Col1. FIG. 4C depicts a flow cytometry analysis of CD44^+/CD24^− MDA cells treated with vehicle or ISX9.

[11] = tested on: BT-549; assay: CD24 mRNA expression in 2D for 48h; type: cell-based
Experimental: (§3) FIG. 3H depicts relative CD24 mRNA expression. CD24 expression was an early indicator of response to ISX9 in 2D across several TNBC cell lines. Treatment screening of several different TNBC cell lines with ISX9 in 2D for 48h yielded four responders, as determined by CD24 mRNA expression (FIG. 3H).

[12] = tested on: MDA-MB-468; assay: CD24 mRNA expression in 2D for 48h; type: cell-based
Experimental: as §3

[13] = tested on: MDA-MB-436; assay: CD24 mRNA expression in 2D for 48h; type: cell-based
Experimental: as §3

[14] = tested on: SUM149; assay: CD24 mRNA expression in 2D for 48h; type: cell-based
Experimental: as §3

[15] = tested on: MDAs; assay: western blot of EMT markers E-cadherin and Vimentin; type: cell-based
Description: Given the strong phenotypic changes induced by ISX9 in HD Col1 (FIG. 2), this example also assessed the differentiation activity of ISX9 by characterizing Epithelial-to-Mesenchymal (EMT) status using western blot (WB) analysis of E-cadherin and vimentin levels. […] FIG. 3D depicts WB of EMT markers E-cadherin and Vimentin in cancer cell lines treated with vehicle or ISX9.
To understand whether ISX9 treatment could induce Mesenchymal-to-Epithelial Transition (MET), western blotting (WB) was performed for the epithelial marker E-Cadherin (CDH1) and the Mesenchymal marker Vimentin (Vim) on 2D and HD Collagen-treated tumor cells (FIG. 4D). FIG. 4D depicts a western blot analysis of EMT markers E-cadherin and Vimentin in MDAs treated with vehicle or ISX9 for 7 days in 2D TC or HD Col1.

For `O=C(NC1CC1)c1cc(-c2cccs2)on1` [ISX9, Isoxazole 9], the “increase of CD24 mRNA expression” value [1] was roughly 14 fold, the “acetylation of histones H3 and H4” value [2] was “significant increase in acetylation of histones H3 and H4” and the “Vimentin expression (WB)” value [3] was “no observed differences to Vimentin expression”. The “Vimentin expression (WB)” value [4] was “no observed differences to Vimentin expression”, the “B-Catenin localization to cell-cell junctions” value [5] was “significant increase in B-Catenin localization” and the “CDH1+ induction” value ([6]; 1 mg/mL and 2.5 mg/mL Col1, 7 days) was “unable to re-express CDH1^+to similar levels”. For the same molecule, the “effect on CDH1+ cells” value ([6]; 2D, 7 days) was “small effect”, the “population of CDH1+ cells” value ([6]; HD (6 mg/mL) Col1, 7 days) was “highest population of CDH1^+ cells” and the “decrease in IC50 to doxorubicin” value [7] was roughly 14.5 fold. For the same molecule, the “detection in heart tissue” value ([8]; ip injection) was “detected”, the “terminal half-life in plasma” value ([8]; single bolus ip injection) was less than 15 min and the “fibrosis and ventricular functional decline after MI” value [9] was “failed to mitigate fibrosis or avert ventricular functional decline after MI”. The “population of CD44+/CD24- CSCs” value ([10]; 2D and HD Collagen I, treated daily for 7 days) was “reducing the population of CD44^+/CD24^− CSCs to a similar degree”, the “CD44+/CD24- cells, share of the population” value ([10]; with treatment, vehicle ˜100%) was roughly 67% and the “CD24 mRNA expression (FC)” value [11] was roughly 12.6. For the same molecule, the “CD24 mRNA expression (FC)” value [12] was roughly 0.6, the “CD24 mRNA expression (FC)” value [13] was roughly 7.1 and the “CD24 mRNA expression (FC)” value [14] was roughly 2.7. For the same molecule, the “effect on MET markers E-Cadherin and Vimentin (WB)” value ([15]; 2D-treated cells, 7 days) was “no effect on either MET marker”, the “E-cadherin expression (WB)” value ([15]; 7 days in HD Col1) was “increased E-cadherin expression; also recorded: increase in E-Cadherin” and the “Vimentin expression (WB)” value ([15]; 7 days in HD Col1) was “reduced Vimentin expression; also recorded: decrease in Vimentin”.

From US20250362286A1, “SCREENING MODELS AND METHODS OF CANCER TREATMENT” (The Regents of the University of California, priority 2022, published 2025)
